Source: BigSolDB 2.1

COc1cc(N)nc(OC)n1
solubility (mole fraction)
Settings | 283.15 K | 288.15 K | 293.15 K | 298.15 K | 303.15 K | 308.15 K | 313.15 K | 318.15 K | 323.15 K
in DMF | 0.055 | 0.0726 | 0.0949 | 0.123 | 0.158 | 0.201 | 0.254 | 0.319 | 0.397
in ethanol | 0.0101 | 0.013 | 0.0164 | 0.0205 | 0.0253 | 0.0313 | 0.0383 | 0.0463 | 0.0561
in isopropanol | 0.00553 | 0.00742 | 0.0101 | 0.0133 | 0.0175 | 0.023 | 0.0297 | 0.038 | 0.0484
in methanol | 0.0181 | 0.0214 | 0.0254 | 0.0301 | 0.0352 | 0.0414 | 0.0482 | 0.0559 | 0.0643
in water | 0.000298 | 0.000347 | 0.000405 | 0.000464 | 0.000534 | 0.000614 | 0.000695 | 0.000788 | 0.000897
